Data from patent US20090124631A1, “Combination Therapy” (priority 2007, published 2009).

How the values were obtained:
HDAC7 = target: T1, HDAC7 (Homo sapiens, UniProt Q8WUI4); test: Fluorescence-based HDAC enzyme assay, recombinant HDAC7; assay type: biochemical; settings: recombinant human HDAC enzyme in vitro; read-out: IC50 (μM) HD7
T1 construct: cDNAs encoding truncated versions of HDAC4, 5 and 7 encompassing their deacetylase domains; hexahistidine (N); made in house; host or cells: Sf-9 insect cells (baculovirus)
T1 sequence (Q8WUI4 512-865 limits assumed): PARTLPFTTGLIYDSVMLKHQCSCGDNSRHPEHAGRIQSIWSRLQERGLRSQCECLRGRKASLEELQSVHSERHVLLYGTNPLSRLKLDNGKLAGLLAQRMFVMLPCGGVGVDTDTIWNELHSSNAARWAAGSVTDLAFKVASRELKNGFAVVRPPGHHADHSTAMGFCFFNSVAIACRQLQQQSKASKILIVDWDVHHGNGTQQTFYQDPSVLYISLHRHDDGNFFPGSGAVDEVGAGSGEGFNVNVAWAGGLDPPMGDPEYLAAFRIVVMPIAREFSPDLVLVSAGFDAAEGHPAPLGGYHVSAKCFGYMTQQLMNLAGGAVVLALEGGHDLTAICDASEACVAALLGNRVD
Excerpt: (§1) cDNAs of human HDAC1-8 and 11 were generated by RT-PCR reactions using primers complementary to the 5′ and 3′ coding sequence of human HDAC gene sequences in GenBank. cDNAs corresponding to the full length human HDAC1, 2, 3 and 11 were cloned into pBlueBac4.5 vector (Invitrogen). The constructs were used to generate recombinant baculoviruses using the Bac-N-Blue™ DNA according to the manufacturer's instructions (Invitrogen). The recombinant HDAC1, 2, 3, 11 proteins produced harbor a FLAG tag at their C-termini. cDNAs encoding truncated versions of HDAC4, 5 and 7 encompassing their deacetylase domains were cloned into pDEST10 as an N-terminal hexahistidine fusion protein and recombinant baculoviruses were generated using the Bac-to-Bac™ Baculovirus expression system (Invitrogen). HDAC6 and 8 were cloned as full length N-terminally His-tagged protein. All HDAC proteins were expressed in insect Sf-9 cells (Spodoptera frugiperdai) upon infection with recombinant baculovirus. HDAC1 enzyme was purified from the Q-sepharose FF column (Amersham Pharmacia Biotech, Baie d'Urfe QC, Canada) followed by an anti-FLAG immunoaffinity column (Sigma). HDAC2, 3 and 11 were purified using Flag-antibody immunoaffinity purification. HDAC4, 5, 6, 7 and 8 were purified using either Ni-NTA resin (QIAGEN Mississauga ON, Canada) or His-Select resin (Sigma) with step washes and elution with different concentrations of imidazole in Buffer containing 25 mM Tris (or NaPO4) pH 8.0, 10% glycerol and 150 mM or 500 mM NaCl.
(§2) Recombinant HDAC enzymes were incubated with diluted compounds in assay buffer (25 mM Hepes, pH 8.0, 137 mM NaCl, 1 mM MgCl2 and 2.7 mM KCl) for 10 minutes at ambient temperatures in black 96-well plate. Boc-Lys(Ac)-AMC (for HDAC1, 2, 3, 6, and 8 enzymes), which was purchased from Bachem Biosciences Inc., (King of Prussia, Philadelphia) were added into enzyme-compound mixture and incubated at 37° C. For HDAC4, 5, 7 assays, Boc-Lys(TFA)-AMC, which was synthesized in house, was used as substrate and 0.1% BSA was added to the buffer. […] Reaction time was predetermined to ensure that reaction was linear for the incubation time. Reaction was stopped by adding a freshly prepared trypsin (1 mg/ml final concentration) with 1 μM TSA (Biomol) in assay buffer. After 30 minutes, fluorescence was measured using a fluorometer (SPECTRAMAX GeminiXS, Molecular Devices, Sunnylvale, Calif.). The 50% inhibitory concentrations (IC50) for inhibitors were determined by analyzing dose-response inhibition curves.

[1] = test system: recombinant human HDAC enzymes; test: HDAC isotype selectivity across recombinant HDAC enzymes; assay type: biochemical; settings: from Table 1
Excerpt: as §1, with “HDAC2, 3 and 11 were purified using Flag-antibody immunoaffinity purification.” left out
as §2, with “Boc-Lys(Ac)-AMC” for “Recombinant HDAC enzymes were incubated with diluted compounds in assay buffer (25 mM Hepes, pH 8.0, 137 mM NaCl, 1 mM MgCl2 and 2.7 mM KCl) for 10 minutes at ambient temperatures in black 96-well plate. Boc-Lys(Ac)-AMC”, “Calif.).” for “Calif.). The 50% inhibitory concentrations (IC50) for inhibitors were determined by analyzing dose-response inhibition curves.”

Row | Compound | IC50 (HDAC7) [µM] | HDAC isotype selectivity [1]
1 | Nc1ccccc1NC(=O)c1ccc(CNc2nccc(-c3cccnc3)n2)cc1 [Compound A] | > 10 | 
2 | Nc1ccccc1NC(=O)c1ccc(N2CC[C@H](Nc3cccnc3)C2)cc1 [Compound B] | > 10 | selective inhibitors of HDAC1, 2 and 3
3 | Nc1ccc(-c2ccccc2)cc1NC(=O)c1ccc(N2CC[C@H](N)C2)cc1 [Compound D] | > 10 | selective for HDAC1 and HDAC 2
4 | CC(C)N1CCN(c2ccc(C(=O)Nc3cc(-c4ccncc4)ccc3N)cc2)CC1 [Compound H] | > 10 | selective for HDAC1 and HDAC 2

Next, values leading:

Row | IC50 (HDAC7) [µM] | HDAC isotype selectivity [1] | Compound
5 | > 10 | selective for HDAC1 and HDAC 2 | Nc1ccc(-c2ccccc2)cc1NC(=O)c1ccc(N2CCC(N)CC2)cc1 [Compound E]
6 | > 10 | selective for HDAC1 and HDAC 2 | CN1CCN(c2ccc(C(=O)Nc3cc(-c4ccccn4)ccc3N)cc2)CC1 [Compound F]
7 | > 10 | selective for HDAC1 and HDAC 2 | CN1CCN(c2ccc(C(=O)Nc3cc(-c4ccncc4)ccc3N)cc2)CC1 [Compound G]
